The conditions of data set [1]: shake-flask, 1H or 19F NMR, temperature not reported; ref N. Muller, J. Pharm. Sci. 1986; cited from earlier work.
Data set [2] can be described thus: log P determination by 19F NMR shake-flask method with internal fluorinated reference (octanol/water). To be noted: for logP: octanol/water.
Data set [3] is described as follows: milogP calculated using Molinspiration Cheminformatics. The note with it: Table SI14.

As to `OCCCCC(F)(F)F` [compound 35], in data set [1], the “logP (lit)” value was “+1.15”. In addition, the “Average logP” value in data set [2] (25 °C, reference TFE (+0.36)) is given as “+1.22”. Further, in data set [2] (Table SI12), the “ΔlogP (exp. logP vs logP lit)” value is recorded as “+0.07”. Also, the lipophilicity (logP) in data set [2] (Average logP, 25 °C, reference TFE (+0.36)) was 1.22; in data set [2] (error (mean logP to three decimals), reference TFE (+0.36)), 1.22; in data set [2] (logP, 19F NMR, 25 °C, average value), 1.22; in data set [2] (logP, single experiment, reference TFE (+0.36)), 1.22. The “ΔlogP (milogP vs logP exp)” value in data set [3] is on record as “+0.43”.

(Values after publication PMC4832822, “Investigating the Influence of (Deoxy)fluorination on the Lipophilicity of Non‐UV‐Active Fluorinated Alkanols and Carbohydrates by a New log P Determination Method” (Angewandte Chemie (International Ed. in English), 2015).)
